System: plants
Experiment: Test D pre-emergence, other plants of Tables D1 and D3
Type: in vivo
Details: for damage to plant (100=total damage to plant; 0=no damage to plant), SORVU: preemergent, 20 DAA; for damage to plant, ALOMY / damage to plant, AVEFA / damage to plant, BEAVA / damage to plant, BROTE / damage to plant, BRSNN / damage to plant, CHEAL / damage to plant, GALAP / damage to plant, HORVW / damage to plant, KCHSC / damage to plant, LOLPE / damage to plant, POAAN / damage to plant, POLCO / damage to plant, SINAR / damage to plant, STEME / damage to plant, VERPE: pre-emergence, 100=total damage, 0=no damage
Procedure, shortened: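 Seeds treated with herbicide safener; sown in soil; glasshouse, 16 h light, 65% humidity. Sprayed day 1 (pre) or ~day 12 (post). Spray in 0.2% v/v adjuvant. Scored 0–100 damage: 20 DAA pre, 15 d post.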

CCn1nc([C@@H]2CN(C)C(=O)[C@H]2C(=O)Nc2cccc(F)c2F)c2cccc(F)c21 [Compound 14]
30: damage to plant (100=total damage to plant; 0=no damage to plant), SORVU (rate 500) | damage to plant, LOLPE (rate 60, 20 DAA) | damage to plant, AVEFA (rate 250, 20 DAA)
80: damage to plant, POAAN (rate 250, 20 DAA) | damage to plant, LOLPE (rate 500, 20 DAA) | damage to plant, POAAN (rate 500, 20 DAA) | damage to plant, POLCO (rate 500, 20 DAA)
40: damage to plant, LOLPE (rate 130, 20 DAA)
50: damage to plant, LOLPE (rate 250, 20 DAA) | damage to plant, POLCO (rate 250, 20 DAA) | damage to plant, BROTE (rate 500, 20 DAA) | damage to plant, CHEAL (rate 500, 20 DAA)
0: damage to plant (100=total damage to plant; 0=no damage to plant), SORVU (rate 130) | damage to plant (100=total damage to plant; 0=no damage to plant), SORVU (rate 250) | damage to plant, ALOMY (rate 15, 20 DAA) | damage to plant, AVEFA (rate 15, 20 DAA) | damage to plant, BEAVA (rate 15, 20 DAA) | damage to plant, BROTE (rate 15, 20 DAA) | damage to plant, BRSNN (rate 15, 20 DAA) | damage to plant, CHEAL (rate 15, 20 DAA) | damage to plant, GALAP (rate 15, 20 DAA) | damage to plant, HORVW (rate 15, 20 DAA) | damage to plant, KCHSC (rate 15, 20 DAA) | damage to plant, LOLPE (rate 15, 20 DAA) | damage to plant, POAAN (rate 15, 20 DAA) | damage to plant, POLCO (rate 15, 20 DAA) | damage to plant, SINAR (rate 15, 20 DAA) | damage to plant, STEME (rate 15, 20 DAA) | damage to plant, VERPE (rate 15, 20 DAA) | damage to plant, ALOMY (rate 30, 20 DAA) | damage to plant, AVEFA (rate 30, 20 DAA) | damage to plant, BEAVA (rate 30, 20 DAA) | damage to plant, BROTE (rate 30, 20 DAA) | damage to plant, BRSNN (rate 30, 20 DAA) | damage to plant, CHEAL (rate 30, 20 DAA) | damage to plant, GALAP (rate 30, 20 DAA) | damage to plant, HORVW (rate 30, 20 DAA) | damage to plant, KCHSC (rate 30, 20 DAA) | damage to plant, LOLPE (rate 30, 20 DAA) | damage to plant, POAAN (rate 30, 20 DAA) | damage to plant, POLCO (rate 30, 20 DAA) | damage to plant, SINAR (rate 30, 20 DAA) | damage to plant, STEME (rate 30, 20 DAA) | damage to plant, VERPE (rate 30, 20 DAA) | damage to plant, ALOMY (rate 60, 20 DAA) | damage to plant, AVEFA (rate 60, 20 DAA) | damage to plant, BEAVA (rate 60, 20 DAA) | damage to plant, BROTE (rate 60, 20 DAA) | damage to plant, BRSNN (rate 60, 20 DAA) | damage to plant, CHEAL (rate 60, 20 DAA) | damage to plant, GALAP (rate 60, 20 DAA) | damage to plant, HORVW (rate 60, 20 DAA) | damage to plant, KCHSC (rate 60, 20 DAA) | damage to plant, POAAN (rate 60, 20 DAA) | damage to plant, SINAR (rate 60, 20 DAA) | damage to plant, STEME (rate 60, 20 DAA) | damage to plant, VERPE (rate 60, 20 DAA) | damage to plant, ALOMY (rate 130, 20 DAA) | damage to plant, BEAVA (rate 130, 20 DAA) | damage to plant, BROTE (rate 130, 20 DAA) | damage to plant, BRSNN (rate 130, 20 DAA) | damage to plant, CHEAL (rate 130, 20 DAA) | damage to plant, GALAP (rate 130, 20 DAA) | damage to plant, KCHSC (rate 130, 20 DAA) | damage to plant, SINAR (rate 130, 20 DAA) | damage to plant, STEME (rate 130, 20 DAA) | damage to plant, VERPE (rate 130, 20 DAA) | damage to plant, BEAVA (rate 250, 20 DAA) | damage to plant, BRSNN (rate 250, 20 DAA) | damage to plant, CHEAL (rate 250, 20 DAA) | damage to plant, GALAP (rate 250, 20 DAA) | damage to plant, KCHSC (rate 250, 20 DAA) | damage to plant, SINAR (rate 250, 20 DAA) | damage to plant, VERPE (rate 250, 20 DAA) | damage to plant, GALAP (rate 500, 20 DAA) | damage to plant, KCHSC (rate 500, 20 DAA) | damage to plant, SINAR (rate 500, 20 DAA)
90: damage to plant, HORVW (rate 500, 20 DAA)
10: damage to plant, POLCO (rate 60, 20 DAA) | damage to plant, AVEFA (rate 130, 20 DAA) | damage to plant, HORVW (rate 130, 20 DAA) | damage to plant, ALOMY (rate 250, 20 DAA) | damage to plant, BROTE (rate 250, 20 DAA) | damage to plant, STEME (rate 250, 20 DAA) | damage to plant, BEAVA (rate 500, 20 DAA) | damage to plant, BRSNN (rate 500, 20 DAA)
60: damage to plant, HORVW (rate 250, 20 DAA) | damage to plant, AVEFA (rate 500, 20 DAA) | damage to plant, STEME (rate 500, 20 DAA)
70: damage to plant, ALOMY (rate 500, 20 DAA)
20: damage to plant, POAAN (rate 130, 20 DAA) | damage to plant, POLCO (rate 130, 20 DAA) | damage to plant, VERPE (rate 500, 20 DAA)

Source: US20220281848A1, “PYRAZOLE-SUBSTITUTED PYRROLIDINONES AS HERBICIDES” (FMC Corporation, priority 2019, published 2022)
